The target of the first experiment is Voltage-gated inwardly rectifying potassium channel KCNH2 (Homo sapiens, UniProt Q12809). Kind of experiment: Inhibition of human ERG expressed in HEK cells by patch clamp assay. In kind it is cell-based, HEK293. Particulars: read-out: IC50. On the technique in general: In patch-clamp work, channel activity is measured electrically.
Chain of Voltage-gated inwardly rectifying potassium channel KCNH2 (Q12809 whole entry): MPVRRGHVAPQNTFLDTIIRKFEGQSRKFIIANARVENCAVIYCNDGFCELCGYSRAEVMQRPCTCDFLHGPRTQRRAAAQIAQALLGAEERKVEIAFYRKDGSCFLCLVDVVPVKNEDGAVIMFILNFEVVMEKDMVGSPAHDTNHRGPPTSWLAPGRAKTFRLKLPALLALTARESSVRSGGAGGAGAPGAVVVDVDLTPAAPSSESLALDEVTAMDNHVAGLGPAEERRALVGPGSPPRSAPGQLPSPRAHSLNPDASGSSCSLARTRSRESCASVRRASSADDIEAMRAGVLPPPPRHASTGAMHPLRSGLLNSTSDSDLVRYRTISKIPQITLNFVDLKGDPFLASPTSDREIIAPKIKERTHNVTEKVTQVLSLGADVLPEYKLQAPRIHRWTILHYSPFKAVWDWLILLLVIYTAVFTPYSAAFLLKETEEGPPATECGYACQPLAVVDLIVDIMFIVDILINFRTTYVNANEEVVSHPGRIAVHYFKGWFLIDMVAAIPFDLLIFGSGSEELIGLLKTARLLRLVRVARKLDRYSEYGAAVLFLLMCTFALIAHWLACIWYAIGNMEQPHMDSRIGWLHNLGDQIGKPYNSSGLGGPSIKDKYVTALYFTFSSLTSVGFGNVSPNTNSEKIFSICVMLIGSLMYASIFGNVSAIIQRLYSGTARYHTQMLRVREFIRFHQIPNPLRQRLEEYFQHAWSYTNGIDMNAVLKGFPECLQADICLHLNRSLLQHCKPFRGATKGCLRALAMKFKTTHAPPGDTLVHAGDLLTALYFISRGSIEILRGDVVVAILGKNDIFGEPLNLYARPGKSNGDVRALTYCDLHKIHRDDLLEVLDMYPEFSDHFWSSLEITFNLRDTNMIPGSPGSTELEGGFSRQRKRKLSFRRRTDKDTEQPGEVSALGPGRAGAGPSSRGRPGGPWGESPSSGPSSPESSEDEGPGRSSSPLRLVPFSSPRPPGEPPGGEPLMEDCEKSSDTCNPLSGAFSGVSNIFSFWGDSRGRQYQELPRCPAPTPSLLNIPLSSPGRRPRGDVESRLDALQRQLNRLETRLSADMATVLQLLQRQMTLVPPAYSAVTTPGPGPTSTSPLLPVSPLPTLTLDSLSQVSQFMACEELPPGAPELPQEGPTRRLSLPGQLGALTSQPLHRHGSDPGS
`O=C(Cc1ccccc1)NCCN(c1ccccc1)c1ccccc1`: the IC50 was 7860 nM. The same measure, in the same setting: with `c1ccc(CCCNCCN(c2ccccc2)c2ccccc2)cc1` the figure was 580 nM; with `c1ccc(CCNCCC(c2ccccc2)c2ccccc2)cc1`, 2790 nM; with `O=C(CCc1ccccc1)NCCN(c1ccc(F)cc1)c1ccc(F)cc1`, 192 nM.

On to `Fc1ccc(N(CCNCCCc2ccccc2)c2ccc(F)cc2)cc1`, for which the IC50 stood at 2.4 nM. For `c1ccc(CCCNCCC(c2ccccc2)c2ccccc2)cc1`, the IC50 was 17 nM.

The same experiment, now with this note: read-out: pIC50 (converted).
As for `c1ccc(CCNCCC(c2ccccc2)c2ccccc2)cc1`, the IC50 is 3160 nM.
